In test [1] the test system is HeLa. Briefly: Cell cycle arrest in human HeLa cells assessed as accumulation at G2/M phase at 50 ng/ml after 12 hrs by flow cytometry. Format: functional. In general terms: Flow cytometry measures light scatter and fluorescence of single cells or particles in a stream.
Test [2] has as its target Glycogen synthase kinase-3 beta (Homo sapiens) (UniProt P49841). Briefly: Inhibition of GSK3-beta in human HeLa cells by immunoprecipitation kinase assay. Format: cell-based.
In test [3] the test system is HeLa. The experiment in a line: Increase in p27KIP1 level in human HeLa cells at 100 uM by Western blotting. In kind it is functional, cell-based. The note with it: TDE = time-dependent effect. On the technique in general: Immunoblotting shows a protein as a band on a membrane.
The test system of test [4] is HeLa. Briefly: Cell cycle arrest in human HeLa cells assessed as accumulation at G1 phase at 50 ng/ml after 12 hrs by flow cytometry. In kind it is functional.
The test system of test [5] is HeLa. The experiment in a line: Cell cycle arrest in human HeLa cells assessed as accumulation at G1 phase at 100 uM treated 12 hrs after nocodazole challenge by flow cytometry. Format: functional, cell-based. The conditions noted are these: TDE = time-dependent effect.
The target of test [6] is Cyclin-dependent kinase 2 (Homo sapiens) (UniProt P24941). Briefly: Inhibition of CDK2 in human HeLa cells by immunoprecipitation kinase assay. Format: cell-based.
For test [7], the system named is HeLa. Briefly: Cell cycle arrest in human HeLa cells assessed as accumulation at G2/M phase at 100 uM treated 12 hrs after nocodazole challenge measured after 6 hrs by flow cytometry. Format: functional.
The target in test [8] is Cyclin-dependent kinase 4 (Homo sapiens) (UniProt P11802). Briefly: Inhibition of CDK4 in human HeLa cells by immunoprecipitation kinase assay. Format: cell-based.
Sequence of Cyclin-dependent kinase 4 (Homo sapiens) (P11802 whole entry): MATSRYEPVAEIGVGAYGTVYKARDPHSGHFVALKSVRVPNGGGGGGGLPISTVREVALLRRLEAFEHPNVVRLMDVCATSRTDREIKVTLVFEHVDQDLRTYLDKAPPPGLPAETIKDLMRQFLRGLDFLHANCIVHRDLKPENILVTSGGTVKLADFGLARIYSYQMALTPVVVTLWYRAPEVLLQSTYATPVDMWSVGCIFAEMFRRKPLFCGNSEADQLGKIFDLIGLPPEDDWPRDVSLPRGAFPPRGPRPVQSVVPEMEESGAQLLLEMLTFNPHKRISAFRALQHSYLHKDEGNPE
For test [9], the system named is HeLa. The experiment in a line: Cell cycle arrest in human HeLa cells assessed as accumulation at G1 phase at 100 uM treated 12 hrs after nocodazole challenge measured after 12 hrs by flow cytometry. Format: functional.
In test [10] the target is Cellular tumor antigen p53 (Homo sapiens) (UniProt P04637). The experiment in a line: Increase in p53-Ser15 phosphorylation in human HeLa cells at 100 uM by Western blotting. In kind it is cell-based.
Sequence of Cellular tumor antigen p53 (Homo sapiens) (P04637 whole entry, looked up): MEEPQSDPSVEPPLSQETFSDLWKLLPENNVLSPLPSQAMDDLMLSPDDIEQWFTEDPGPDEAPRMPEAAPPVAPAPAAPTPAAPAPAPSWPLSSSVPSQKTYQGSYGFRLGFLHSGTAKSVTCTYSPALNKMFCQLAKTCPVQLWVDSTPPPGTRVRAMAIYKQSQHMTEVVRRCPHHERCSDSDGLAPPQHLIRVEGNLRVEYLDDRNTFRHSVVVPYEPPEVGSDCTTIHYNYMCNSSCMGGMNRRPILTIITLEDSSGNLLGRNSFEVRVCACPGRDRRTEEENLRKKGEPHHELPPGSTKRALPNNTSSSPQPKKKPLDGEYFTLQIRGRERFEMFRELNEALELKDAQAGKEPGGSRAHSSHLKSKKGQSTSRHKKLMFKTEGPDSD
For test [11], the system named is HeLa. Briefly: Cell cycle arrest in human HeLa cells assessed as accumulation at G1 phase at 100 uM treated 12 hrs after nocodazole challenge measured after 24 hrs by flow cytometry. In kind it is functional.
In test [12] the test system is HeLa. The experiment in a line: Decrease in cyclin D3 expression in human HeLa cells at 100 uM by Western blotting. Format: functional, cell-based. The conditions noted are these: TDE = time-dependent effect.
Test [13] concerns HeLa. Briefly: Cell cycle arrest in human HeLa cells assessed as accumulation at G1 phase at 100 uM treated 12 hrs after nocodazole challenge measured after 6 hrs by flow cytometry. In kind it is functional.
For test [14], the system named is HeLa. Briefly: Increase in ataxia telangiectasia mutated gene expression in human HeLa cells after 24 hrs by RT-PCR relative to control. In kind it is functional.
Test [15] has as its system HeLa. Briefly: Cell cycle arrest in human HeLa cells assessed as accumulation at G2/M phase at 100 uM treated 12 hrs after nocodazole challenge measured after 12 hrs by flow cytometry. Format: functional.
Test [16] has as its system HeLa. The experiment in a line: Increase in ataxia telangiectasia mutated gene expression in human HeLa cells after 12 hrs by RT-PCR relative to control. In kind it is functional.
The test system of test [17] is HeLa. The experiment in a line: Increase in hypophosphorylated pRb level in human HeLa cells at 100 uM by Western blotting. The note with it: TDE = time-dependent effect. In kind it is functional, cell-based.
Test [18] deals with HeLa. The experiment in a line: Cell cycle arrest in human HeLa cells assessed as accumulation at G2/M phase at 100 uM treated 12 hrs after nocodazole challenge measured after 24 hrs by flow cytometry. Format: functional.
In test [19] the test system is HeLa. Briefly: Increase in p21CIP1 level in human HeLa cells at 100 uM by Western blotting. The conditions noted are these: TDE = time-dependent effect. Format: functional, cell-based.

We go through 1 compound from ChEMBL document CHEMBL1141027, “HY251, a novel cell cycle inhibitor isolated from Aralia continentalis, induces G1 phase arrest via p53-dependent pathway in HeLa cells” (2009).

The source made the active and inactive calls. No cut-off for these calls is given here.

Sequence of Glycogen synthase kinase-3 beta (Homo sapiens) (P49841 whole entry, looked up): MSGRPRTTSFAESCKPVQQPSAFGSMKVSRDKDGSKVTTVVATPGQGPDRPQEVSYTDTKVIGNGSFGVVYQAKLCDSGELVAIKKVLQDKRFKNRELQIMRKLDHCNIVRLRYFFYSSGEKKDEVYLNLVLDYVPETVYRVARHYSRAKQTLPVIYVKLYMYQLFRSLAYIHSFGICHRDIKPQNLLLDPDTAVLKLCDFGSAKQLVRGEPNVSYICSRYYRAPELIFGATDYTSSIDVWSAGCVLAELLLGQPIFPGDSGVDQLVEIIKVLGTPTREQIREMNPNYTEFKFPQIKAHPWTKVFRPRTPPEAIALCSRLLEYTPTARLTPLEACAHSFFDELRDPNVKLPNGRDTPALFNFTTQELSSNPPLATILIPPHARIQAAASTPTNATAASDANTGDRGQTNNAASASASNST

Regarding `C=CC1CC2(O)CC3(O)CCC=CC3C2(O)C1(O)CCC` (centres undefined), the Activity is 68% in test [1]; “tde” in test [3]; 4% in test [4]; “tde” in test [5]; 37% in [7]; 48% in test [9]. Further, the Activity in test [11] is 52%; in [12], “tde”; in test [13], 35%; in [15], 21%; in [17] it was “tde”; in [18], 11%. Besides, in [19], the Activity entry was “tde”. The result in test [2], in [6] and in test [8] was inactive. Also, the result in test [10] was Active. The “fold change (FC)” value in test [14] was determined as 3.8; in test [16] it was 3.1.
